The structures appear in SMILES notation. Like-named read-outs stand apart in the source and are kept apart here.

Consider 2 molecules from patent US8729047B2, “Compositions for inhibiting redox-sensitive GTPases” (Board of Regents, The University of Texas System, priority 2010, dated 2014).

Common to all, as to set-up: made in house; host or cells: E. coli
Test [1] concerns the target T1, RhoC (Homo sapiens, UniProt P08134). Nature of the test: Guanine nucleotide exchange of [3H]GDP-loaded GTPase with 6-TGDP (FIG. 13A). Type of test: binding. The procedure: FIG. 13. Guanine nucleotide exchange of small GTPases with 6-TGDP. (A) To monitor 6-TGDP-mediated GTPase GDP dissociation, [^3H]GDP-loaded GTPase (1 μM) was incubated with 6-TGDP (0-2000 μM) for 1 h. (B) To monitor GTPase 6-TGDP dissociation by GDP (0-2000 μM) in the presence and absence of dithiothreitol (DTT), 6-TGDP-loaded GTPase (˜1 μM) was treated with .NO2 (˜3 μM) under anaerobic conditions and was incubated with various concentrations of [^3H]GDP (0-2000 μM) in the presence and absence of DTT (10 mM) for 1 h. For all assays, aliquots were withdrawn and spotted onto nitrocellulose filters. The filters were then washed three times with an assay buffer, and radioactivity was determined using a Beckman-Coulter scintillation counter. The resultant radioactivity (dpm) values associated with GTPase-bound [^3H]GDP were converted into the fraction of mol nucleotide per mol total GTPase. The data presented represent mean and standard error values from triplicate measurements. The apparent dissociation constants (appKD values) of GTPase 6-TGDP association ([^3H]GDP dissociation, A); and 6-TGDP dissociation ([3H]GDP association, B) were obtained by fitting the data to a simple dissociation and association, respectively. (A) The ^appKD values of Ras, RhoC, RhoA and Rac1 for 6-TGDP, are, respectively, 2300, 230, 224, and 245 μM [6-TGDP]. (B) The appKD values of RhoC with and without DTT are, respectively, 560, and 1000 μM [[^3H]GDP], whereas the ^appKD values of Ras with and without DTT are 530, and 520 μM [[^3H]GDP], respectively. The standard errors of each ^appKD value are less than 10% of their given values, and regression values associated with the fit were r^2>0.9560.
A kinetic assay method using radiolabeled GDP ([^3H]GDP) was established. The apparent dissociation constants (^appKD 6-TGDP) of Rho GTPases (including RhoA, Cdc42, and Rac1/2/3) and Ras with 6-TGDP were determined (FIG. 13). The results of this preliminary kinetic study provided strong support for the mechanism proposed for the role of 6-TGNP in RhoC inactivation (FIG. 7).
The true dissociation constant (^trueKD 6-TGDP) of Ras, RhoC, RhoA and Rac1 for 6-TGDP was then calculated to be ˜20.7 pM, 212 μM, 208 μM, and 158 μM [6-TGDP] by using a compensation equation, ^trueKD 6-TGDP=^appKD 6-TGDP/(1+[GDP]/^trueKD GDP) (95), in conjunction with the values given [(^appKD 6-TGDP of Ras, RhoC, RhoA, and Rac1=2300, 230, 224, and 245 μM (FIG. 13) and ^trueKD GDP=9 pM, 12 μM, 13 μM and 1.8 μM, respectively. The ^trueKD GDP of Ras, RhoA and Rac1 was determined previously (Lenzen et al. Biochemistry 37, 7420-7430 (1998); Heo et al. Biochemistry 44, 6573-6585 (2005)) and the ^trueKD GDP of RhoC was further determined. Example: ^trueKD 6-TGDP for Ras=2300 μM/(1+1 μM GDP/[…])=[…] [6-TGDP]].

Test [2] deals with T1, RhoC. The experiment in a line: Competitive binding assay, [3H]GDP-loaded Rho protein titrated with 6-TGDP (FIG. 16A). The procedure: (§1) FIG. 16. Kinetic properties of RhoC with 6-TGDP in the presence or absence of a redox agent. All kinetic analyses are described elsewhere herein. (A) ^appKD values of Rac1, RhoA, RhoC, and RhoC C20S for 6-TGDP were estimated to be 7.9, 11.6, 11.8, and 11.2 μM, respectively. ^trueKD values of Rac1, RhoA, […] for 6-TGDP were then calculated to be 5.1, 10.8, 11.1, and 10.5 μM, respectively, by using a compensation equation, ^trueKD for 6-TGDP=^appKD for 6-TGDP/(1+[[^3H]GDP]/^trueKD for GDP) (Heo, J., and Hong, I. (2010) Biochemistry 49, 3965-3976), in conjunction with the values given. […] The GDP dissociation rates from RhoC C20S by NO, .NO2, and N2O3 were estimated to be 0.02×10^−3, 0.05×10^−3, and 0.04×10^−3 s^−1, respectively. […] (D) ^appKD values of RhoC for [^3H]GDP in the presence or absence of DTT were estimated to be 22.4 μM and […], respectively. ^appKD values of C20S RhoC for [^3H]GDP in the presence or absence of DTT were determined to be 24.8 μM and 25.2 μM, respectively. The regression values associated with these fits were >0.8595. All data points associated with vertical standard error bars shown in this figure are the mean values of triplicate measurements.
(§2) Transition metal-free assay buffer and vials as described in a previous study (Heo et al. Biochemistry 49, 3965-3976 (2010)) were used for all kinetic assays. The kinetic assay buffer contains the highest grade of 50 mM NaCl, 10 mM MgCl2, 1 mM EDTA, and 0.1 mM DTPA in 50 mM TrisHCl (pH 7.4). Before performance of any of the assays, all protein samples also were dialyzed with a metal-free buffer under anaerobic conditions. As with RhoA and Rac1 (Heo et al. J. Biol. Chem. 280, 31003-31010 (2005)), C20S RhoC were expressed in E. coli and purified using anionic and size exclusion columns.
(§3) (a) A competitive binding assay was performed to determine the binding affinity of Rho GTPase and 6-TGDP. The radiolabeled [^3H]GDP-loaded Rho protein (1 μM) was titrated with various concentrations of 6-TGDP. The titrated Rho protein sample then was spotted onto a nitrocellulose membrane. Each membrane was washed three times with the assay buffer, and radioactivity was determined using a Beckman-Coulter scintillation counter. The radioactivity of the sample (Rho protein-bound [^3H]GDP) was converted into, and thus plotted, as the fraction of mol GDP per mol total Rho protein. The apparent dissociation constant (^appKD) of the Rho protein with [^3H]GDP in the presence of 6-TGDP was determined by using Prism software to fit the titration curve to a hyperbola.

The target in the next test is RhoC C20S (Homo sapiens, UniProt P08134, C20S). Described as above. The procedure:
as §1, §2, §3

[3] abbreviates: [3H]GDP-loaded Rho protein 1 μM titrated with 6-TGDP, FIG. 16A, read-out: appKD for 6-TGDP.
[4] abbreviates: determined within this study, read-out: trueKD for GDP.

T1 sequence (P08134 whole entry): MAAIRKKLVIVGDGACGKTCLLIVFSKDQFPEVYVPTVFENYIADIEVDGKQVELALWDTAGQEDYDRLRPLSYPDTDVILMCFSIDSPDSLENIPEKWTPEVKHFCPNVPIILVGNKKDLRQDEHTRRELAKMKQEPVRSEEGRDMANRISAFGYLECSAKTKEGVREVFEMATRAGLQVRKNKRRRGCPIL
RhoC C20S, sequence (P08134 whole entry C20S): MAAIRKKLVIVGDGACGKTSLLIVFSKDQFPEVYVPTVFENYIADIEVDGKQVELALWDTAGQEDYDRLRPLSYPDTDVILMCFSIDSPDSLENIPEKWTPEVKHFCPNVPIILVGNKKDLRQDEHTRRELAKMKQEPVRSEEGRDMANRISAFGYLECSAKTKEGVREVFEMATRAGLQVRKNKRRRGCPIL

Take `Nc1nc2c(ncn2[C@@H]2O[C@H](COP(=O)(O)OP(=O)(O)O)[C@@H](O)[C@H]2O)c(=S)[nH]1` [6-TGDP, 6-thioguanosine diphosphate]: the Kd is 230 µM at RhoC [1] ([3H]GDP-loaded GTPase 1 μM, 6-TGDP 0-2000 μM, 1 h, FIG. 13A, read-out: appKD for 6-TGDP); 212 µM at RhoC [1] (calculated by compensation equation from appKD 6-TGDP and trueKD GDP, read-out: trueKD 6-TGDP); 11.8 µM on RhoC [2] (setting [3]); 11.1 µM on RhoC [2] (calculated by compensation equation, FIG. 16A, read-out: trueKD for 6-TGDP); 11.2 µM on RhoC C20S (setting [3]); 10.5 µM at RhoC C20S (calculated by compensation equation, FIG. 16A, fourth value of the list, read-out: trueKD for 6-TGDP).
In the case of `Nc1nc2c(ncn2[C@@H]2O[C@H](COP(=O)(O)OP(=O)(O)O)[C@@H](O)[C@H]2O)c(=O)[nH]1` [GDP], the Kd on RhoC [1] (further determined (Example 2), read-out: trueKD GDP) worked out at 12 µM; on RhoC [2] (setting [4]), 15 ± 8 µM; at RhoC C20S (setting [4]) it was 14.2 ± 8 µM.
